Laboratory results from the supplement of paper PMC12463676, “Small-molecule dissolution of stress granules by redox modulation benefits ALS models” (Nature Chemical Biology, 2025).

Legend:
[1] = compound: NC(=O)CCCCC1CCSS1 [lipoamide]; test: thermal stability z-score vs DMSO; higher = more thermally stabilized by treatment; settings: HeLa, lipoamide concentration 100 µM
Method: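 Cellular thermal proteome profiling in HeLa cells. Cells were treated with 100 µM lipoamide for 1 h, with or without 1 mM arsenate for a further 1 h, then heated to ten temperatures (37-66.3 °C), and soluble protein was quantified by TMT mass spectrometry relative to 0.1% DMSO controls. The thermal stability score (sum of log2 fold changes minus the abundance score) was transformed to a z-score; mean of n = 3 experiments.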

[2] = compound: O=[As]([O-])(O)O.[K+] [potassium arsenate]; test: as above; settings: HeLa; arsenate concentration 1 mM
Method: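 Cellular thermal proteome profiling in HeLa cells treated with 1 mM arsenate for 1 h (DMSO pretreatment), heated to ten temperatures (37-66.3 °C). Soluble protein was quantified by TMT mass spectrometry relative to DMSO controls; the thermal stability score was transformed to a z-score; mean of n = 3 experiments.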

[3] = arsenate co-treatment: 1 mM arsenate 1 h
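Note: each temperature applied for 3 min, abundance score taken as mean log2 fold change at the two lowest temperatures, z-score obtained by mean subtraction and division by SD.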

Chain of UniProt Q8NC56 (Q8NC56 whole entry): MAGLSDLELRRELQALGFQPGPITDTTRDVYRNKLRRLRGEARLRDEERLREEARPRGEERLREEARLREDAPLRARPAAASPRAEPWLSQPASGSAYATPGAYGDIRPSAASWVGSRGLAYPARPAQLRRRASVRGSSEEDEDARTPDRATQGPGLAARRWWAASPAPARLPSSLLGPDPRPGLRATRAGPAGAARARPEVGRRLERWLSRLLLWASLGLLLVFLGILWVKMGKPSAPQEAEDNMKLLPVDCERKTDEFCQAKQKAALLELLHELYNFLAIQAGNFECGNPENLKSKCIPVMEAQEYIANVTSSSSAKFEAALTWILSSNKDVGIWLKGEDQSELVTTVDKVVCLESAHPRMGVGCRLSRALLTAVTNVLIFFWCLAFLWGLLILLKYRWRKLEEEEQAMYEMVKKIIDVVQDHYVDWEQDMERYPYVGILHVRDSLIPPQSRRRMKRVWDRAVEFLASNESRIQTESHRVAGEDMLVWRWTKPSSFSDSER
Chain of UniProt Q9NZB2 (Q9NZB2 whole entry): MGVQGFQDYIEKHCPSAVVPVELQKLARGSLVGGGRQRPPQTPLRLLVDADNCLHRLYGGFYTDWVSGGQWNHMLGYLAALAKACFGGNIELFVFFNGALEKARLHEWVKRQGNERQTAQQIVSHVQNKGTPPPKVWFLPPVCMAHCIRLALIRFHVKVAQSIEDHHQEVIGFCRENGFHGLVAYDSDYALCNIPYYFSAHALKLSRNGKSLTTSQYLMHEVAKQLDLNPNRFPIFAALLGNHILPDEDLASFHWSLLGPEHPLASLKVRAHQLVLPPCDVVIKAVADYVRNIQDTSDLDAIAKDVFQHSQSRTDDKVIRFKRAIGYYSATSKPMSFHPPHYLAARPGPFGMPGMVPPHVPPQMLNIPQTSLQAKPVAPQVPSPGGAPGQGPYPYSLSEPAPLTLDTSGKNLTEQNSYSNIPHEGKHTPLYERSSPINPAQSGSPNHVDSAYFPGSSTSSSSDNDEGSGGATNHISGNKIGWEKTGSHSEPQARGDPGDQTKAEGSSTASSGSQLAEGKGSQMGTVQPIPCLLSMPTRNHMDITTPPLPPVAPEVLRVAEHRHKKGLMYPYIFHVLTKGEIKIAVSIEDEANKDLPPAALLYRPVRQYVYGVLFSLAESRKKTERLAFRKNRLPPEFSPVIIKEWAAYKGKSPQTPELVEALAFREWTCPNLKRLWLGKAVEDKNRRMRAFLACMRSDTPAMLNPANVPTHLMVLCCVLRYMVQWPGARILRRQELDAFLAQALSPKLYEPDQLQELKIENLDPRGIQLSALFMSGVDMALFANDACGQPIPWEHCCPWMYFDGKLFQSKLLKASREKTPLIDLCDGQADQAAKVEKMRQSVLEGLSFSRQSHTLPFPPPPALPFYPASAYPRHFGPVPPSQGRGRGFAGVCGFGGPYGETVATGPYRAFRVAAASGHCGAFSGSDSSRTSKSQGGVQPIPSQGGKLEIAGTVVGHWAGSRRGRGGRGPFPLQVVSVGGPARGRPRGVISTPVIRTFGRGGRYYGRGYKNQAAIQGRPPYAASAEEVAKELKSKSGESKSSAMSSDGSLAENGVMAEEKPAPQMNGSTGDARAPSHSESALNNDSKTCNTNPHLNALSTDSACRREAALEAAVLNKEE
Chain of UniProt P46976 (P46976 whole entry): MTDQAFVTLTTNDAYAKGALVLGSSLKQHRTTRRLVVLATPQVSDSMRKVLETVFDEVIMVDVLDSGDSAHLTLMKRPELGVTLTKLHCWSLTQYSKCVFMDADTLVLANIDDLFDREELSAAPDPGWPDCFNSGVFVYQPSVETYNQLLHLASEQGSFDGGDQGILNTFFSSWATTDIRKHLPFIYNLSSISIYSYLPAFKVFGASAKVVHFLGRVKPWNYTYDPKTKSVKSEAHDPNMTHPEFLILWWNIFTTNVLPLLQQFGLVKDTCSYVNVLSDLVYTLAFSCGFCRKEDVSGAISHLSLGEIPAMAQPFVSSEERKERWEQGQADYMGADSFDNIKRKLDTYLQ
Chain of UniProt P43487 (P43487 whole entry): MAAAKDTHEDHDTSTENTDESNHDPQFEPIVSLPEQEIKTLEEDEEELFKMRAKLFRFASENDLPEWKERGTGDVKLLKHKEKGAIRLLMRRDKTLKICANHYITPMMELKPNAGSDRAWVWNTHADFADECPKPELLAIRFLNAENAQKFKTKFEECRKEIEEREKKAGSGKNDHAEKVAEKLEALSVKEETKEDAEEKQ
Chain of UniProt Q00534 (Q00534 whole entry): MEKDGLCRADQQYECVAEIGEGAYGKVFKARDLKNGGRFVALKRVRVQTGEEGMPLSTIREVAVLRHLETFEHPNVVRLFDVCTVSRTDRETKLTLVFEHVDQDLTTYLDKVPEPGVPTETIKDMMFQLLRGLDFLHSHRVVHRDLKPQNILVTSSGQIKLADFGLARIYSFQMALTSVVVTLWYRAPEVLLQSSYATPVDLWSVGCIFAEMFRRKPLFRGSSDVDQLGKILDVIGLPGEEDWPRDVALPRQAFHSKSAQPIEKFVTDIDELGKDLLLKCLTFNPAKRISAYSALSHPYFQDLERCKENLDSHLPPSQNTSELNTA
Chain of UniProt Q96SW2 (Q96SW2 whole entry): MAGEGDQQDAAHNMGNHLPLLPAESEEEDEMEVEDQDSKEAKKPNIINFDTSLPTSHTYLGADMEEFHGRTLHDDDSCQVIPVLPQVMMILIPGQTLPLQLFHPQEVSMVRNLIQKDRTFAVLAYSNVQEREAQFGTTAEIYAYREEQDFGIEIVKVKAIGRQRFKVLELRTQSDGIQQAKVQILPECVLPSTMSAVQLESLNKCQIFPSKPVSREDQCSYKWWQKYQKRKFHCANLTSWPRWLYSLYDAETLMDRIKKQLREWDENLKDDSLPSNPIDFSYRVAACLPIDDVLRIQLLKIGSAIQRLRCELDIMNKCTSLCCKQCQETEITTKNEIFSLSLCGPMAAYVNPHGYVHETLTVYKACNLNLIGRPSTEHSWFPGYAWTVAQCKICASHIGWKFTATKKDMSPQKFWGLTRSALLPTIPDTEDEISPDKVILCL
Chain of UniProt Q6NSJ5 (Q6NSJ5 whole entry): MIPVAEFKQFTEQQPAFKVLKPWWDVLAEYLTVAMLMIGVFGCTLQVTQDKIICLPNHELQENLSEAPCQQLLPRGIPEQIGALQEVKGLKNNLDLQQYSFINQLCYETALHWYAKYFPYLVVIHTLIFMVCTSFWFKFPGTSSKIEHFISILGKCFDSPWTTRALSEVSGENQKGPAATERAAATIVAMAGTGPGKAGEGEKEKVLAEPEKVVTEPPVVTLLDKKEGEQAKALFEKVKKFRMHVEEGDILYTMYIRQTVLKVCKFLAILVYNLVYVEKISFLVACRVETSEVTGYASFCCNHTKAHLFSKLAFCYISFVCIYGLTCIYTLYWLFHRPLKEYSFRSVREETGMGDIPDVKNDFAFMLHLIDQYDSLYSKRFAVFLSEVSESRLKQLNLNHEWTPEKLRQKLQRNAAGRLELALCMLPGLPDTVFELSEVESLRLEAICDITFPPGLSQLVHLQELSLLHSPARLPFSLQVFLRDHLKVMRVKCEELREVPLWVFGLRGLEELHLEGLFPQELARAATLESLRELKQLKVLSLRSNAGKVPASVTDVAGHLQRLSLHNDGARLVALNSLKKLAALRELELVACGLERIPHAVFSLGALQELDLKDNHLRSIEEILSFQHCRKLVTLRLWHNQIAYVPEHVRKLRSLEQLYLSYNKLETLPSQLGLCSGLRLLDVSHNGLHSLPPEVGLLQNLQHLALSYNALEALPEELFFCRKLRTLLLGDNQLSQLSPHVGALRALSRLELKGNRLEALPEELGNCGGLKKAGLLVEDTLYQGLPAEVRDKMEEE
Chain of UniProt Q99633 (Q99633 whole entry): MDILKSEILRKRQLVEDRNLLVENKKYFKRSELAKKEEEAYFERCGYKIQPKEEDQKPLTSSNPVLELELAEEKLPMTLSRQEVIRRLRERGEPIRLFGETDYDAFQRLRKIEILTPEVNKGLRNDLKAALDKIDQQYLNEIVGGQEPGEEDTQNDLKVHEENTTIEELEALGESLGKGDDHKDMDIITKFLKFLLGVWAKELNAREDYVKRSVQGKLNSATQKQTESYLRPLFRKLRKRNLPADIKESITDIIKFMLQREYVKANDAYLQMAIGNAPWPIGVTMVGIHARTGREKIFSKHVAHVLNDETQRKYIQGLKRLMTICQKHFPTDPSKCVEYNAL
Chain of UniProt P22061 (P22061 whole entry): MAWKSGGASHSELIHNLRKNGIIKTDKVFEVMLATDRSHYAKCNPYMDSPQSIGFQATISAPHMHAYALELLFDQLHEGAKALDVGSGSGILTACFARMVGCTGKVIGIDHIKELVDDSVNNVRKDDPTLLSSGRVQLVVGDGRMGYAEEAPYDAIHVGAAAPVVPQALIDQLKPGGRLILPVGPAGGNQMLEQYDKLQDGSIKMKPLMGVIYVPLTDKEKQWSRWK
Chain of UniProt P00813 (P00813 whole entry): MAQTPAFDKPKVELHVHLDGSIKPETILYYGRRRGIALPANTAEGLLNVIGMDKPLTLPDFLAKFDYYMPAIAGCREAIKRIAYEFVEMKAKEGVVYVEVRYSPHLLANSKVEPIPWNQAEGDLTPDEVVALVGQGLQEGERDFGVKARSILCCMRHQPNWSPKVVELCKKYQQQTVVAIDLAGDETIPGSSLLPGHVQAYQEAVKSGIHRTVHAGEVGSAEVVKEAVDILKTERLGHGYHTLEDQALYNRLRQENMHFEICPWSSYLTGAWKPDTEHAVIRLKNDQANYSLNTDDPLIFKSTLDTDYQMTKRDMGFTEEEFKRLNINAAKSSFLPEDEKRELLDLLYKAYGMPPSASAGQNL
Chain of UniProt O95833 (O95833 whole entry, looked up): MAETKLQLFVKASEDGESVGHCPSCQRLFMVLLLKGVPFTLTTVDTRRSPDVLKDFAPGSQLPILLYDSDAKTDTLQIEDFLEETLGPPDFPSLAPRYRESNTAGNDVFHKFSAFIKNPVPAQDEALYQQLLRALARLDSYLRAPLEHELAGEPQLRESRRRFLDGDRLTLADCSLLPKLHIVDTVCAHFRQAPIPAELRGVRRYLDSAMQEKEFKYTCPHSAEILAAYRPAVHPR

Row | Target | thermal stability z-score [1, 3] | thermal stability z-score ([1]; arsenate co-treatment: none) | thermal stability z-score [2]
1 | FGFR1OP (UniProt O95684) | 0.163 | -0.0584 | 1.33
2 | NEK9 (UniProt Q8TD19) | -0.25 | -0.366 | 0.719
3 | PHLPP1 (UniProt O60346) | 0.138 | -0.144 | -0.061
4 | BRIX1 (UniProt Q8TDN6) | 0.442 | -0.0247 | 1.3
5 | WDR55 (UniProt Q9H6Y2) | 0.00122 | -0.679 | -1.7
6 | IK (UniProt Q13123) | 1.25 | 0.908 | 1.75
7 | HNRNPH3 (UniProt P31942) | -0.175 | 0.0351 | -0.243
8 | C18ORF21 (UniProt Q32NC0) | -0.42 | -0.189 | -2.28
9 | TMA7 (UniProt Q9Y2S6) | 0.356 | 0.314 | 0.111
10 | TMEM186 (UniProt Q96B77) | -1.59 | -0.895 | -0.803
11 | SLC38A10 (UniProt Q9HBR0) | 0.639 | 0.226 | -0.0408
12 | CLIC3 (UniProt O95833) | 0.00456 | 0.0631 | -0.0618
13 | PRPF18 (UniProt Q99633) | -0.378 | 0.186 | -0.321
14 | HAUS2 (UniProt Q9NVX0) | -0.143 | -0.261 | 0.0695
15 | ADA (UniProt P00813) | 0.792 | 0.403 | -0.000857
16 | NDUFA11 (UniProt Q86Y39) | 0.521 | -0.0102 | 0.571
17 | FKBP8 (UniProt Q14318) | -1.33 | -0.861 | 1.05
18 | FBXO30 (UniProt Q8TB52) | -0.102 | -0.208 | -0.959
19 | ZC3H18 (UniProt Q86VM9) | 1.11 | 0.987 | -1.11
20 | CAPN15 (UniProt O75808) | 0.0525 | 0.0796 | -0.24
21 | MTMR3 (UniProt Q13615) | -0.301 | -0.594 | -1.04
22 | GRSF1 (UniProt Q12849) | -0.892 | -0.354 | 0.26
23 | CHD1 (UniProt O14646) | -0.0735 | 0.209 | -0.504
24 | ADO (UniProt Q96SZ5) | 1.62 | 1.31 | -0.401
25 | RDH13 (UniProt Q8NBN7) | -0.0891 | -0.278 | 0.307
26 | DYM (UniProt Q7RTS9) | 0.487 | -0.0128 | -0.365
27 | PDLIM1 (UniProt O00151) | 0.156 | 0.134 | -0.239
28 | GYG1 (UniProt P46976) | -0.215 | 0.14 | -0.536

Row | Target | thermal stability z-score [1, 3] | thermal stability z-score ([1]; arsenate co-treatment: none) | thermal stability z-score [2]
29 | PCMT1 (UniProt P22061) | 0.993 | 0.908 | 0.245
30 | ASL (UniProt P04424) | 0.153 | -0.627 | -0.112
31 | LEMD2 (UniProt Q8NC56) | -1.14 | -1.41 | -0.503
32 | RANBP1 (UniProt P43487) | -0.127 | 0.319 | 0.475
33 | AVEN (UniProt Q9NQS1) | 0.134 | -0.00487 | -0.823
34 | FBXO3 (UniProt Q9UK99) | -0.185 | -0.251 | -1.06
35 | SNRPA1 (UniProt P09661) | 1.91 | 1.08 | 0.474
36 | NEDD1 (UniProt Q8NHV4) | 0.124 | 0.153 | 0.216
37 | RPLP2 (UniProt P05387) | 1.56 | 1.34 | 0.225
38 | TIMM17B (UniProt O60830) | 0.0946 | -0.362 | 0.173
39 | BMS1 (UniProt Q14692) | 0.575 | 0.482 | 0.723
40 | CDK6 (UniProt Q00534) | -0.218 | 0.136 | 0.123
41 | SUGT1 (UniProt Q9Y2Z0) | 0.611 | 0.585 | 0.388
42 | RTCA (UniProt O00442) | 0.213 | 0.21 | -0.695
43 | MYL6B (UniProt P14649) | -0.283 | 0.233 | -1.03
44 | FAM120A (UniProt Q9NZB2) | -0.00535 | -0.0221 | 0.686
45 | CRBN (UniProt Q96SW2) | 0.304 | -0.141 | -0.0801
46 | MYPN (UniProt Q86TC9) | 0.126 | 0.447 | 0.803
47 | EGLN1 (UniProt Q9GZT9) | 0.176 | 0.423 | 1.64
48 | POLDIP3 (UniProt Q9BY77) | -0.257 | 0.0404 | -1.86
49 | LRRC8E (UniProt Q6NSJ5) | 0.43 | -0.139 | -0.237
50 | RHOBTB3 (UniProt O94955) | 0.00346 | 0.217 | -0.0881
51 | POU2F1 (UniProt P14859) | -0.0121 | -0.303 | 0.0127
52 | CD55 (UniProt P08174) | 0.266 | 0.169 | 0.446
53 | PTPN23 (UniProt Q9H3S7) | -0.214 | -0.0347 | 0.691
54 | TXNDC11 (UniProt Q6PKC3) | -0.797 | -0.984 | 0.425
55 | NOMO2 (UniProt Q5JPE7) | -3.91 | -3.99 | 0.407
